As usually defined, the pIC50 is −log10 of the IC50, conventionally taken in molar units.

Results on 23 compounds are retold here after patent US20250214942A1, “INHIBITORS OF RECEPTOR INTERACTING PROTEIN KINASE I FOR THE TREATMENT OF DISEASE” (Board of Regents, The University of Texas System, priority 2019, published 2025).

pIC50: −log10 of the molar value.

The subject of this assay is human monocytic cell line U937. Kind of assay: Human U937 cellular necroptosis assay (TNFalpha + z-VAD-FMK, Cell Titer-Glo viability). It counts as cell-based. The settings on record: Homo sapiens, U-937, 22 h, U937 cells, 25 ng/mL human TNFalpha + 25 μM z-VAD-FMK, read-out: hU937 Avg IC50. On the procedure: The human monocytic cell line U937 (CRL-1593.2) was purchased from ATCC. The cells were routinely maintained in RPMI-1640 Medium (Gibco, Catalog #11875-093) supplemented with 10% heat inactivated fetal bovine serum (Gibco, Catalog #16140-071), 100 units/mL penicillin and 100 μg/mL streptomycin (Gibco, Catalog #15140-122), in a humidified incubator (37° C., 5% CO2). For the assay, cells were resuspended in RPMI-1640 phenol red free Media (Gibco, Catalog #11835-030) supplemented with 10% fetal bovine serum (Sigma, Catalog #F2442), 100 units/mL penicillin and 100 ug/mL streptomycin. Cells were stimulated with 25 ng/mL human TNFalpha (Cell Sciences, Catalog #CSI15659B) and 25 μM z-VAD-FMK (R&D Systems, Catalog #FMK001) followed by seeding 5000 cells per well in a volume of 40 μL to a white, CulturPlate-384 (Perkin Elmer, Catalog #6007680). Stock solutions of the test compounds were prepared in 100% DMSO (Sigma, Catalog #D2650) and serially diluted 1:3 using 100% DMSO. Compounds were additionally diluted 1:40 in assay medium, and 10 μL/well was transferred to the plate. Following the compound addition the plate was incubated at 37° C. and 5% CO2 for 22 h. After 22 h, viability was assessed with the addition of 20 μL of Cell Titer-Glo 2.0 (Promega, Catalog #G9243). The tissue culture plate was shaken on an orbital shaker at 300 RPM for 15 minutes at rt in the dark. Luminescence was measured using a PerkinElmer Envision™ plate reader. IC50 values were calculated using a four-parameter logistic curve fit using Genedata Screener software. Results are shown below in Table 3, where the average value across multiple runs is given.
For `Cc1ccc(C2CC=NN2C(=O)C23CC(COc4cnc(C#N)cn4)(C2)C3)cc1F` (centres unmarked) [Example 269, 5-((3-(5-(3-fluoro-4-methyl-phenyl)-4,5-dihydro-1H-pyrazole-1-carbonyl)bicyclo-[1.1.1]pentan-1-yl)-methoxy)pyrazine-2-carbonitrile], the pIC50 was 8.27.

In the case of `N#Cc1ccc(OCC23CC(C(=O)N4N=CCC4c4cccc(F)c4F)(C2)C3)nc1` (centres unmarked) [Example 270, 6-((3-(5-(2,3-difluorophenyl)-4,5-dihydro-1H-pyrazole-1-carbonyl)bicyclo[1.1.1]pentan-1-yl)methoxy)nicotinonitrile], the pIC50 is 7.80.

`Cc1ccc(C2CC=NN2C(=O)C23CC(COc4ccc(C#N)cn4)(C2)C3)c(F)c1` (centres unmarked) [Example 271, 6-((3-(5-(2-fluoro-4-methyl-phenyl)-4,5-dihydro-1H-pyrazole-1-carbonyl)bicyclo-[1.1.1]pentan-1-yl)methoxy)-nicotinonitrile]: the pIC50 was 7.70.

Take `Cc1ccc(C2CC=NN2C(=O)C23CC(COc4ccc(C#N)cn4)(C2)C3)cc1F` (centres unmarked) [Example 272, 6-((3-(5-(3-fluoro-4-methyl-phenyl)-4,5-dihydro-1H-pyrazole-1-carbonyl)bicyclo-[1.1.1]pentan-1-yl)-methoxy)nicotinonitrile]: the pIC50 is 7.62.

Regarding `Cc1ccc(C2CC=NN2C(=O)C23CC(COc4ccc(C#N)cn4)(C2)C3)cc1` (centres unmarked) [Example 273, 6-((3-(5-(p-tolyl)-4,5-dihydro-1H-pyrazole-1-carbonyl)-bicyclo[1.1.1]pentan-1-yl)-methoxy)nicotinonitrile], the pIC50 is 7.52.

For the compound `N#Cc1cnc(OCC23CC(C(=O)N4N=CCC4c4cnccn4)(C2)C3)cn1` (centres unmarked) [Example 274, 5-((3-(5-(pyrazin-2-yl)-4,5-dihydro-1H-pyrazole-1-carbonyl)bicyclo[1.1.1]pentan-1-yl)methoxy)pyrazine-2-carbonitrile], the negative-log IC50 (pIC50) is 7.21.

As to `N#Cc1ccc(OCC23CC(C(=O)N4N=CCC4c4cc(F)c(Br)c(F)c4)(C2)C3)nc1` (centres unmarked) [Example 275, 6-((3-(5-(4-bromo-3,5-difluorophenyl)-4,5-dihydro-1H-pyrazole-1-carbonyl)-bicyclo[1.1.1]pentan-1-yl)-methoxy)nicotinonitrile], the pIC50 is 7.14.

Regarding `N#Cc1ccc(OCC23CC(C(=O)N4N=CCC4c4ccccc4)(C2)C3)nc1` (centres unmarked) [Example 276, 6-((3-(5-phenyl-4,5-dihydro-1H-pyrazole-1-carbonyl)-bicyclo[1.1.1]pentan-1-yl)-methoxy)nicotinonitrile], the pIC50 was 7.12.

For the compound `N#Cc1cnc(OCC23CC(C(=O)N4N=CCC4c4cncc(F)c4)(C2)C3)cn1` (centres unmarked) [Example 277, 5-((3-(5-(5-fluoropyridin-3-yl)-4,5-dihydro-1H-pyrazole-1-carbonyl)bicyclo[1.1.1]-pentan-1-yl)methoxy)pyrazine-2-carbonitrile], the pIC50 is 7.09.

In the case of `Cc1ccc(C2CC=NN2C(=O)C23CC(COc4cnc(C#N)cn4)(C2)C3)nc1` (centres unmarked) [Example 278, 5-((3-(5-(5-methylpyridin-2-yl)-4,5-dihydro-1H-pyrazole-1-carbonyl)bicyclo[1.1.1]-pentan-1-yl)methoxy)pyrazine-2-carbonitrile], the pIC50 was 7.01.

Regarding `Cc1cccc(C2CC=NN2C(=O)C23CC(COc4ccc(C#N)cn4)(C2)C3)c1` (centres unmarked) [Example 279, 6-((3-(5-(m-tolyl)-4,5-dihydro-1H-pyrazole-1-carbonyl)-bicyclo[1.1.1]pentan-1-yl)-methoxy)nicotinonitrile], the pIC50 is 6.98.

Turning to `N#Cc1ccc(OCC23CC(C(=O)N4N=CCC4c4cnccn4)(C2)C3)nc1` (centres unmarked) [Example 280, 6-((3-(5-(pyrazin-2-yl)-4,5-dihydro-1H-pyrazole-1-carbonyl)bicyclo[1.1.1]pentan-1-yl)methoxy)nicotinonitrile], the pIC50 is 6.97.

In the case of `N#Cc1ccc(OCC23CC(C(=O)N4N=CCC4c4cccc(C#N)c4)(C2)C3)nc1` (centres unmarked) [Example 281, 6-((3-(5-(3-cyanophenyl)-4,5-dihydro-1H-pyrazole-1-carbonyl)bicyclo[1.1.1]pentan-1-yl)methoxy)nicotinonitrile], the negative logarithm of the IC50 (pIC50) was 6.83.

For the compound `Cc1cnc(C2CC=NN2C(=O)C23CC(COc4ccc(C#N)cn4)(C2)C3)cn1` (centres unmarked) [Example 282, 6-((3-(5-(5-methylpyrazin-2-yl)-4,5-dihydro-1H-pyrazole-1-carbonyl)bicyclo[1.1.1]-pentan-1-yl)methoxy)-nicotinonitrile], the pIC50 is 6.82.

As to `N#Cc1cnc(OCC23CC(C(=O)N4CC(F)CC4c4cccc(F)c4)(C2)C3)cn1` (centres unmarked) [Example 283], the pIC50 is 6.80.

Take `N#Cc1cncc(C2CC=NN2C(=O)C23CC(COc4cnc(C#N)cn4)(C2)C3)c1` (centres unmarked) [Example 284, 5-((3-(5-(5-cyanopyridin-3-yl)-4,5-dihydro-1H-pyrazole-1-carbonyl)bicyclo[1.1.1]pentan-1-yl)methoxy)pyrazine-2-carbonitrile]: the pIC50 was 6.79.

Regarding `N#Cc1ccc(OCC23CC(C(=O)N4N=CCC4c4cncc(F)c4)(C2)C3)nc1` (centres unmarked) [Example 285, 6-((3-(5-(5-fluoropyridin-3-yl)-4,5-dihydro-1H-pyrazole-1-carbonyl)bicyclo[1.1.1]-pentan-1-yl)methoxy)-nicotinonitrile], the negative-log IC50 (pIC50) was 6.79.

Turning to `N#Cc1ccc(OCC23CC(C(=O)N4N=CCC4c4cncc(C#N)c4)(C2)C3)nc1` (centres unmarked) [Example 286, 5-(1-(3-(((5-cyanopyridin-2-yl)oxy)methyl)bicyclo[1.1.1]-pentane-1-carbonyl)-4,5-dihydro-1H-pyrazol-5-yl)-nicotinonitrile], the pIC50 was 6.66.

With `N#Cc1ccc(OCC23CC(C(=O)N4CC(F)CC4c4cccc(F)c4)(C2)C3)nc1` (centres unmarked) [Example 288, 6-((3-(4-fluoro-2-(3-fluoro-phenyl)pyrrolidine-1-carbonyl)bicyclo[1.1.1]pentan-1-yl)methoxy)nicotinonitrile], the negative logarithm of the IC50 (pIC50) is 6.56.

Consider `Cc1ccc(C2CC=NN2C(=O)C23CC(COc4cnc(C#N)cn4)(C2)C3)cn1` (centres unmarked) [Example 289, 5-((3-(5-(6-methylpyridin-3-yl)-4,5-dihydro-1H-pyrazole-1-carbonyl)bicyclo[1.1.1]-pentan-1-yl)methoxy)pyrazine-2-carbonitrile], for which the pIC50 was 6.55.

`N#Cc1ccc(OCC23CC(C(=O)N4N=CCC4c4cccc(Cl)c4Cl)(C2)C3)nc1` (centres unmarked) [Example 290, 6-((3-(5-(2,3-dichlorophenyl)-4,5-dihydro-1H-pyrazole-1-carbonyl)bicyclo[1.1.1]pentan-1-yl)methoxy)nicotinonitrile]: the pIC50 is 6.35.

For `N#Cc1ccc(OCC23CC(C(=O)N4N=CCC4c4ncc(F)cc4F)(C2)C3)nc1` (centres unmarked) [Example 291, 6-((3-(5-(3,5-difluoropyridin-2-yl)-4,5-dihydro-1H-pyrazole-1-carbonyl)bicyclo-[1.1.1]pentan-1-yl)methoxy)-nicotinonitrile], the pIC50 was 6.21.

Take `C[C@@H](c1c(F)cccc1F)N(C)C(=O)C12CC(COc3cnc(C#N)cn3)(C1)C2` [Example 292, (S)-3-(((5-cyanopyrazin-2-yl)oxy)methyl)-N-(1-(2,6-difluorophenyl)ethyl)-N-methylbicyclo[1.1.1]pentane-1-carboxamide]: the pIC50 was 6.02.
